In patent US20240366618A1, “CGRP Antagonists for Treating Trigeminal Neuralgia” (Pfizer Ireland Pharmaceuticals, priority 2021, published 2024):
“Also recorded” adds a separate entry of the source.

Tests used:
[1] = test system: classic trigeminal neuralgia; conditions: patients with classic trigeminal neuralgia; cited from earlier work
migraine [2] = conditions: cited from earlier work
[3] = test system: refractory atypical trigeminal neuralgia; experiment: Case study: oral rimegepant in one patient with refractory atypical trigeminal neuralgia; assay type: in vivo, human; set-up: key to Barrow Neurological Institute (BNI) pain intensity score: II: defined as no pain on medication; conditions: for adverse effects / tolerability / treatment efficacy in words: treatment period of six months
From the text: In this study, refractory atypical trigeminal neuralgia was successfully treated using rimegepant, a novel oral calcitonin gene-related peptide (CGRP) antagonist. The patient experienced a decrease in pain from seven to nine out of 10 to 0 out of 10 within one day of therapy initiation. […] Thus, this case illustrates the promise of CGRP antagonist therapy as a novel treatment for trigeminal neuralgia, including atypical trigeminal neuralgia.
A person with a 5-year history of TN presented with episodic sharp, stabbing and constant burning pain along the V2 nerve distribution. Their pain was triggered by sensation on their upper right teeth, including wind, mastication, and extreme-temperature fluids. Their self-reported pain score ranged from seven to nine out of 10, and their Barrow Neurological Institute (BNI) pain intensity score was rated IV out of V, defined as inadequate pain control with medication. At presentation, their pain regimen consisted of 300 mg oxcarbazepine per day, up to eight 15 mg tablets of oxycodone per day, and 10 mcg per hour transdermal buprenorphine patch. On neurological exam, sensation was intact to light touch bilaterally except along the right nasolabial fold, and grimace was symmetric. The patient experienced impairment in ability to perform daily activities, such as eating, working, and speaking. Other associated symptoms included headache, fatigue, and significant weight loss.
Prior to presentation, the patient unsuccessfully tried several medications for pain control, including oxcarbazepine, meperidine, carisoprodol, propranolol, pregabalin, sumatriptan, and ergot. They also failed medical cannabinoids, oxygen therapy, trigger point injections, and sphenopalatine nerve blockades. They underwent four surgical procedures at outside institutions, including Gamma Knife radiosurgery (37 months prior to presentation), right balloon rhizotomy (31 months prior to presentation), radiofrequency ablation (22 months prior to presentation), and a V2-3 radiofrequency rhizotomy (14 months prior to presentation).
Given their sharp/stabbing pain, we offered them a microvascular decompression (MVD).
After multiple trials of different medications for six years after their MVD, the patient was started on 75 mg of rimegepant per day. Within 12 hours of their first dose, their self-reported pain score improved to 0 out of 10. […] They rarely had mild (2 out of 10) pain, which was controlled with 1 mg buprenorphine. Their BNI pain intensity score was reduced to II, defined as no pain on medication.

migraine [4] = experiment: Three double-blind, placebo-controlled BHV-3000 migraine studies; assay type: in vivo, human; conditions: 75 mg dose
[5] = Ongoing long-term safety study of rimegepant; assay type: in vivo, human; conditions: 75 mg dose; preliminary data
trigeminal neuralgia = conditions: cited from earlier work
[6] = acute migraine treatment trial, fast-dissolve orally disintegrating tablet (ODT) formulation
[7] = 75 mg per day, listed as Rimegepant

NC(=O)N1c2ccccc2C=Cc2ccccc21 [carbamazepine]
response rates with initial therapy [1]: approximately 70%

NC(=O)N1c2ccccc2CC(=O)c2ccccc21 [oxcarbazepine]
response rates with initial therapy [1]: approximately 70%

N[C@@H]1c2cccnc2[C@H](OC(=O)N2CCC(n3c(=O)[nH]c4ncccc43)CC2)CC[C@H]1c1cccc(F)c1F [rimegepant, (5S,6S,9R)-5-amino-6-(2,3-difluorophenyl)-6,7,8,9-tetrahydro-5H-cyclohepta[b]pyridine-9-yl-4-(2-oxo-2,3-dihydro-1H-imidazo[4,5-b]pyridine-1-yl)piperidine-1-carboxylate]
time postdose at which statistically significant benefit for pain relief was demonstrated (migraine [2]; [6]): 60 min
time postdose at which statistically significant benefit on achieving pain freedom was demonstrated (migraine [2]; [6]): 90 min
safety profile in words (migraine [2]; migraine trials): favorable safety profile
efficacy in migraine in words (migraine [2]; orally administered, preventive and acute treatment): proven efficacy in the preventive and acute treatment of migraine
time after first dose until self-reported pain score improved to 0 out of 10 ([3]; 75 mg of rimegepant per day): ≤ 12 h
self-reported pain score ([3]; 75 mg of rimegepant per day, within 12 hours of first dose, before treatment seven to nine out of 10): 0 out of 10
Barrow Neurological Institute (BNI) pain intensity score ([3]; on 75 mg rimegepant per day, before treatment IV out of V): II
time after therapy initiation until pain decreased to 0 out of 10 ([3]; oral rimegepant): one
mood and cognition ([3]; patient-reported, six-month treatment period): drastic improvement in mood and cognition
rare mild pain during treatment ([3]; six-month treatment period, 75 mg per day, controlled with 1 mg buprenorphine): 2 out of 10
adverse effects / tolerability ([3]; 75 mg per day): no significant adverse effects
treatment efficacy in words ([3]; 75 mg per day): continues to be efficacious; also recorded: mostly had no pain
adverse effects / tolerability [3, 7]: well tolerated
treatment efficacy in words [3, 7]: maintains efficacy over a period of six months
adverse effects / tolerability ([3]; 75 mg per day, listed as rigemepant): lack of adverse effects
pain ([3]; within one day of therapy initiation, before treatment seven to nine out of 10): 0 out of 10
efficacy for the treatment of migraine in words (migraine [4]): effective
tolerability in words [5]: well tolerated

B1: erenumab: an injected anti-CGRP monoclonal antibody (antibody, chains of the INN, looked up, V domains shown)
VH: QVQLVESGGGVVQPGRSLRLSCAASGFTFSSFGMHWVRQAPGKGLEWVAVISFDGSIKYSVDSVKGRFTISRDNSKNTLFLQMNSLRAEDTAVYYCARDRLNYYDSSGYYHYKYYGMAVWGQGTTVTVSS
VL: QSVLTQPPSVSAAPGQKVTISCSGSSSNIGNNYVSWYQQLPGTAPKLLIYDNNKRPSGIPDRFSGSKSGTSTTLGITGLQTGDEADYYCGTWDSRLSAVVFGGGTKLTVL
patients reporting constipation and/or injection site reaction (trigeminal neuralgia; in vivo): three
side effects in words (trigeminal neuralgia; in vivo): minimal
patients with significant decrease in trigeminal neuralgia pain (trigeminal neuralgia; injected erenumab): nine
patients reporting complete pain resolution (trigeminal neuralgia; of 10 patients treated with erenumab): five
